Data taken from patent US20240368120A1 (Terns Pharmaceuticals, Inc., priority 2023, published 2024).

Molecular target: T1, human GLP-1R receptor (Homo sapiens, UniProt P43220)
T1 construct: expressed in transfected cells
Assay: GLP-1R low expression cell assay (cAMP TR-FRET, CHO-K1_hGLP-1Rlow_clone10 cells)
Type: cell-based
Conditions: for EC50: cAMP TR-FRET, 30 min at 25° C.; for Emax: maximum activation relative to control GLP-1 peptide agonist
Summary of the method: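 CHO-K1 cells stably expressing low surface human GLP-1R (clone10), 1,000 cells/well, exposed to 10-point 3-fold compound dilutions for 30 min at 25 °C. cAMP measured by TR-FRET (Eu-cAMP tracer/ULight-anti-cAMP, 15 min). EC50 from Hill fit of duplicate percent activation relative to a parallel GLP-1 control agonist.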

T1 sequence (P43220 24-463): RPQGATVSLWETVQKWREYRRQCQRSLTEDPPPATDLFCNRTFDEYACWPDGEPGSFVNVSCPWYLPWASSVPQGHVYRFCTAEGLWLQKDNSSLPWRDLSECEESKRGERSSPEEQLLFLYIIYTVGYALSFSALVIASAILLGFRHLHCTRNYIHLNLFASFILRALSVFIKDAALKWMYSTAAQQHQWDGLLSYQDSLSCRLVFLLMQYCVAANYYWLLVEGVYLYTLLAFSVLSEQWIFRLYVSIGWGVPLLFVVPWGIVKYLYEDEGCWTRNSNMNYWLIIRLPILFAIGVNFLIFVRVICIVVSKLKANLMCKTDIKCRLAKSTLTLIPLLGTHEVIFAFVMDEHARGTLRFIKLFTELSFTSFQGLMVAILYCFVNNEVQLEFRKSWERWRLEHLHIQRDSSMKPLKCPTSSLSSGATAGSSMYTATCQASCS

| SMILES | EC50 [µM] | Emax [%] |
| --- | --- | --- |
| COc1cc(C#N)ncc1COc1cccc(C2CCN(Cc3nc4c(OC(F)F)cc(C(=O)O)cc4n3C)CC2)n1 [Compound 354] | 0.01 to 0.1 | > 85 |
| CCOc1cc(C(=O)O)cc2c1nc(CN1CCC(Oc3cccc(COc4ccc(Cl)cc4F)n3)CC1)n2C [Compound 256, 2-((4-((6-((4-chloro-2-fluorophenoxy)methyl)pyridin-2-yl)oxy)piperidin-1-yl)methyl)-4-ethoxy-1-methyl-1H-benzo[d]imidazole-6-carboxylic acid] | < 0.01 | > 85 |
| O=C(O)c1ccc2c(nc(CN3CCC(c4cccc(OCc5ccc(Cl)cc5F)n4)CC3)n2C[C@@H]2CCO2)c1O [Compound 245, (S)-2-((4-(6-((4-Chloro-2-fluorobenzyl)oxy)pyridin-2-yl)piperidin-1-yl)methyl)-4-hydroxy-1-(oxetan-2-ylmethyl)-1H-benzo[d]imidazole-5-carboxylic acid] | < 0.01 | > 85 |
| COc1cc(C(=O)O)cc2c1nc([C@@H](C)N1CCC(c3cccc(OCc4ccc(C#N)cc4F)n3)CC1)n2C[C@@H]1CCO1 [Compound 94, 2-((R)-1-(4-(6-((4-Cyano-2-fluorobenzyl)oxy)pyridin-2-yl)piperidin-1-yl)ethyl)-4-methoxy-1-(((S)-oxetan-2-yl)methyl)-1H-benzo[d]imidazole-6-carboxylic acid] | > 1 | > 85 |
| O=C(O)c1ccc2nc(CN3CCC(c4cccc(OCc5ccc(Cl)cc5F)n4)CC3)[nH]c2c1O [Compound 204, 2-((4-(6-((4-Chloro-2-fluorobenzyl)oxy)pyridin-2-yl)piperidin-1-yl)methyl)-7-hydroxy-1H-benzo[d]imidazole-6-carboxylic acid] | > 1 | > 85 |
| C[C@@H](F)Oc1cc(C(=O)O)cc2c1nc(CN1CCC(c3cccc(OCc4ccc(C#N)cc4F)n3)CC1)n2C [Compound 312, (R)-2-((4-(6-((4-Cyano-2-fluorobenzyl)oxy)pyridin-2-yl)piperidin-1-yl)methyl)-4-(1-fluoroethoxy)-1-methyl-1H-benzo[d]imidazole-6-carboxylic acid] | 0.01 to 0.1 | > 85 |
| COc1cc(C(=O)O)cc2c1nc(CN1CCC(c3cccc4c3O[C@@H](c3ccc(Cl)cc3F)CO4)CC1)n2C [Compound 268, (S)-2-((4-(3-(4-Chloro-2-fluorophenyl)-2,3-dihydrobenzo[b][1,4]dioxin-5-yl)piperidin-1-yl)methyl)-4-methoxy-1-methyl-1H-benzo[d]imidazole-6-carboxylic acid] | < 0.01 | > 85 |
| CC(C)Oc1cc(C(=O)O)cc2c1nc(CN1CCC(c3cccc4c3O[C@@](C)(c3ccc(Cl)cn3)O4)CC1)n2C [Compound 84, (S)-2-((4-(2-(5-Chloropyridin-2-yl)-2-methylbenzo[d][1,3]dioxol-4-yl)piperidin-1-yl)methyl)-4-isopropoxy-1-methyl-1H-benzo[d]imidazole-6-carboxylic acid] | < 0.01 | > 85 |
| [2H]C([2H])([2H])Oc1cc(C(=O)O)cc2c1nc(CN1CCC(c3cccc(OCc4ccc(C#N)cc4F)n3)CC1)n2C [Compound 349, 2-((4-(6-((4-Cyano-2-fluorobenzyl)oxy)pyridin-2-yl)piperidin-1-yl)methyl)-4-(methoxy-d3)-1-methyl-1H-benzo[d]imidazole-6-carboxylic acid] | < 0.01 | > 85 |
| C[C@H](F)Oc1cc(C(=O)O)cc2c1nc(CN1CCC(c3cccc(OCc4ccc(C#N)cc4F)n3)CC1)n2C [Compound 313, (S)-2-((4-(6-((4-Cyano-2-fluorobenzyl)oxy)pyridin-2-yl)piperidin-1-yl)methyl)-4-(1-fluoroethoxy)-1-methyl-1H-benzo[d]imidazole-6-carboxylic acid] | 0.01 to 0.1 | > 85 |
| Cn1c(CN2CCC(c3cccc4c3O[C@H](c3ccc(C#N)cc3F)CO4)CC2)nc2c(OC(F)F)cc(C(=O)O)cc21 [Compound 124, (R)-2-((4-(3-(4-Cyano-2-fluorophenyl)-2,3-dihydrobenzo[b][1,4]dioxin-5-yl)piperidin-1-yl)methyl)-4-(difluoromethoxy)-1-methyl-1H-benzo[d]imidazole-6-carboxylic acid] | > 1 | 25 to 50 |
| Cn1c(CN2CCC(c3cccc(OCc4ccc(Cl)cc4F)c3)CC2)nc2c(OC(F)F)cc(C(=O)O)cc21 [Compound 148, 2-((4-(3-((4-Chloro-2-fluorobenzyl)oxy)phenyl)piperidin-1-yl)methyl)-4-(difluoromethoxy)-1-methyl-1H-benzo[d]imidazole-6-carboxylic acid] | 0.1 to 1 | > 85 |
| Cn1c(CN2CCC(c3ccc4c(c3)N(Cc3ccc(Cl)cc3F)CCO4)CC2)nc2c(OC(F)F)cc(C(=O)O)cc21 [Compound 373, 2-((4-(4-(4-Chloro-2-fluorobenzyl)-3,4-dihydro-2H-benzo[b][1,4]oxazin-6-yl)piperidin-1-yl)methyl)-4-(difluoromethoxy)-1-methyl-1H-benzo[d]imidazole-6-carboxylic acid] | > 1 | < 25 |
| CCOc1cc(-c2nnn[nH]2)cc2c1nc(CN1CCC(c3cccc(OCc4ccc(C#N)cc4F)n3)CC1)n2C [Compound 273, 4-(((6-(1-((4-ethoxy-1-methyl-6-(1H-tetrazol-5-yl)-1H-benzo[d]imidazol-2-yl)methyl)piperidin-4-yl)pyridin-2-yl)oxy)methyl)-3-fluorobenzonitrile] | < 0.01 | > 85 |
| Cc1ccc(COc2cccc(C3CCN(Cc4nc5c(OC(F)F)cc(C(=O)O)cc5n4C)CC3)n2)c(F)c1 [Compound 238, 4-(Difluoromethoxy)-2-((4-(6-((2-fluoro-4-methylbenzyl)oxy)pyridin-2-yl)piperidin-1-yl)methyl)-1-methyl-1H-benzo[d]imidazole-6-carboxylic acid] | 0.01 to 0.1 | > 85 |
| Cn1c(CN2CCC(c3cccc(OCc4ccc(Cl)cc4F)n3)CC2)nc2c(C#N)cc(C(=O)O)cc21 [Compound 189, 2-((4-(6-((4-chloro-2-fluorobenzyl)oxy)pyridin-2-yl)piperidin-1-yl)methyl)-4-cyano-1-methyl-1H-benzo[d]imidazole-6-carboxylic acid] | 0.01 to 0.1 | > 85 |
| Cn1c(CN2CCC(c3cccc4c3O[C@@](C)(c3ccc(Cl)cn3)O4)CC2)nc2c(C(C)(F)F)cc(C(=O)O)cc21 [Compound 87, (S)-2-((4-(2-(5-Chloropyridin-2-yl)-2-methylbenzo[d][1,3]dioxol-4-yl)piperidin-1-yl)methyl)-4-(1,1-difluoroethyl)-1-methyl-1H-benzo[d]imidazole-6-carboxylic acid] | 0.1 to 1 | > 85 |
| C[C@]1(c2ccc(Cl)cn2)Oc2cccc(C3CCN(Cc4nc5cc(C(=O)O)cc6c5n4CCO6)CC3)c2O1 [Compound 75, (S)-2-((4-(2-(5-chloropyridin-2-yl)-2-methylbenzo[d][1,3]dioxol-4-yl)piperidin-1-yl)methyl)-3,4-dihydro-5-oxa-1,2a-diazaacenaphthylene-7-carboxylic acid] | > 1 | < 25 |
| COc1c(Cl)ccc(COc2cccc(C3CCN(Cc4nc5c(OC(F)F)cc(C(=O)O)cc5n4C)CC3)n2)c1F [Compound 212, 2-((4-(6-((4-Chloro-2-fluoro-3-methoxybenzyl)oxy)pyridin-2-yl)piperidin-1-yl)methyl)-4-(difluoromethoxy)-1-methyl-1H-benzo[d]imidazole-6-carboxylic acid] | 0.1 to 1 | > 85 |
| Cn1c(CN2CCC(c3cccc(OCc4ccc(Cl)cc4F)n3)CC2)nc2c(OCC(F)F)cc(C(=O)O)cc21 [Compound 169, 2-((4-(6-((4-Chloro-2-fluorobenzyl)oxy)pyridin-2-yl)piperidin-1-yl)methyl)-4-(2,2-difluoroethoxy)-1-methyl-1H-benzo[d]imidazole-6-carboxylic acid] | < 0.01 | > 85 |
| CCOc1cc(C(=O)O)cc2c1nc(CN1CCC(c3cccc4c3O[C@@H](c3ccc(Cl)cc3F)CO4)CC1)n2C [Compound 266, (S)-2-((4-(3-(4-chloro-2-fluorophenyl)-2,3-dihydrobenzo[b][1,4]dioxin-5-yl)piperidin-1-yl)methyl)-4-ethoxy-1-methyl-1H-benzo[d]imidazole-6-carboxylic acid] | < 0.01 | > 85 |
| CC(F)Oc1cc(C(=O)O)cc2c1nc(CN1CCC(c3cccc(OCc4ccc(Cl)cc4F)n3)CC1)n2C (centres unmarked) [Compound 359, 2-((4-(6-((4-Chloro-2-fluorobenzyl)oxy)pyridin-2-yl)piperidin-1-yl)methyl)-4-(1-fluoroethoxy)-1-methyl-1H-benzo[d]imidazole-6-carboxylic acid] | < 0.01 | > 85 |
| CNC(=O)c1cc(OC)c2nc(CN3CCC(c4cccc(OCc5ccc(Cl)cc5F)n4)CC3)n(C)c2c1 [Compound 280, 2-((4-(6-((4-chloro-2-fluorobenzyl)oxy)pyridin-2-yl)piperidin-1-yl)methyl)-4-methoxy-N, 1-dimethyl-1H-benzo[d]imidazole-6-carboxamide] | > 1 | 50 to 85 |
| COc1cc(C(=O)O)cc2c1nc(N(C)[C@H]1CC[C@H](c3cccc(OCc4ccc(Cl)cc4F)n3)CC1)n2C [Compound 363, 2-(((1r,4r)-4-(6-((4-Chloro-2-fluorobenzyl)oxy)pyridin-2-yl)cyclohexyl)(methyl)amino)-4-methoxy-1-methyl-1H-benzo[d]imidazole-6-carboxylic acid] | < 0.01 | > 85 |
| CCOc1cc(C(=O)O)cc2c1nc(CN1CCC(c3cccc4c3OC[C@H](c3ccc(Cl)cc3F)O4)CC1)n2C [Compound 270, (S)-2-((4-(2-(4-Chloro-2-fluorophenyl)-2,3-dihydrobenzo[b][1,4]dioxin-5-yl)piperidin-1-yl)methyl)-4-ethoxy-1-methyl-1H-benzo[d]imidazole-6-carboxylic acid] | 0.01 to 0.1 | > 85 |
